Results from PubChem BioAssay (NCI).
Values joined by “and” are separate entries in the source; they are usually repeats but may differ in a detail not shown here. Equal entries are not always repeated.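 Values below derive from 48-hour exposures of cells grown in 96-well plates, with endpoints linearly interpolated between the two concentrations bracketing the appropriate inhibition level. GI50 = concentration required for 50% inhibition of growth. The concentration for full growth arrest is given as TGI.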

Experiments:
Assay in all cases: NCI anticancer screen, dose series, 48 h
DU-145 prostate = system: DU-145 prostate
HOP-92 NSCLC = system: HOP-92 NSCLC
HOP-62 NSCLC = system: HOP-62 NSCLC
T-47D breast = system: T-47D breast
KM12 colon = system: KM12 colon
HT29 colon = system: HT29 colon
MOLT-4 leukemia = system: MOLT-4 leukemia
BT-549 breast = system: BT-549 breast
MDA-MB-231 breast = system: MDA-MB-231 breast
IGROV1 ovarian = system: IGROV1 ovarian
SF-268 CNS = system: SF-268 CNS
SN12C renal = system: SN12C renal
PC-3 prostate = system: PC-3 prostate
MALME-3M melanoma = system: MALME-3M melanoma
U251 CNS = system: U251 CNS
OVCAR-5 ovarian = system: OVCAR-5 ovarian
RPMI-8226 leukemia = system: RPMI-8226 leukemia
CAKI-1 renal = system: CAKI-1 renal
786-0 renal = system: 786-0 renal
MCF7 breast = system: MCF7 breast
SR leukemia = system: SR leukemia
SNB-19 CNS = system: SNB-19 CNS
M14 melanoma = system: M14 melanoma
NCI-H23 lung = system: NCI-H23 lung
OVCAR-8 ovarian = system: OVCAR-8 ovarian
HCC-2998 colon = system: HCC-2998 colon
SK-MEL-28 melanoma = system: SK-MEL-28 melanoma
SF-539 CNS = system: SF-539 CNS
A549 NSCLC = system: A549 NSCLC
CCRF-CEM leukemia = system: CCRF-CEM leukemia
LOX IMVI melanoma = system: LOX IMVI melanoma
SNB-75 CNS = system: SNB-75 CNS
UO-31 renal = system: UO-31 renal
COLO 205 colon = system: COLO 205 colon
MDA-MB-435 = system: MDA-MB-435
RXF 393 renal = system: RXF 393 renal
A498 renal = system: A498 renal
OVCAR-4 ovarian = system: OVCAR-4 ovarian
SW-620 colon = system: SW-620 colon
UACC-257 melanoma = system: UACC-257 melanoma
SF-295 CNS = system: SF-295 CNS
UACC-62 melanoma = system: UACC-62 melanoma
SK-MEL-2 melanoma = system: SK-MEL-2 melanoma
K-562 leukemia = system: K-562 leukemia
HCT-116 colon = system: HCT-116 colon
SK-MEL-5 melanoma = system: SK-MEL-5 melanoma
OVCAR-3 ovarian = system: OVCAR-3 ovarian
HS 578T breast = system: HS 578T breast
HCT-15 colon = system: HCT-15 colon
TK-10 renal = system: TK-10 renal
ACHN renal = system: ACHN renal
NCI-H226 lung = system: NCI-H226 lung
NCI-H460 lung = system: NCI-H460 lung
NCI-H522 lung = system: NCI-H522 lung
NCI/ADR-RES ovarian = system: NCI/ADR-RES ovarian
SK-OV-3 ovarian = system: SK-OV-3 ovarian
EKVX NSCLC = system: EKVX NSCLC
HL-60(TB) leukemia = system: HL-60(TB) leukemia

SMILES: CC#Cc1nc(Nc2cc(C)[nH]n2)c2ccccc2n1
- GI50 (DU-145 prostate): 7.47 µM
- TGI (DU-145 prostate): 55 µM
- GI50 (HOP-92 NSCLC): 3.55 µM
- TGI (HOP-92 NSCLC): 21.1 µM
- GI50 (HOP-62 NSCLC): 12.4 µM
- TGI (HOP-62 NSCLC): 39.7 µM
- GI50 (T-47D breast): 10.8 µM
- TGI (T-47D breast): 56.5 µM
- GI50 (KM12 colon): 4.38 µM and 2.4 µM
- TGI (KM12 colon): 12.4 µM
- GI50 (HT29 colon): 3.71 µM
- TGI (HT29 colon): 16.9 µM
- GI50 (MOLT-4 leukemia): 5.33 µM
- TGI (MOLT-4 leukemia): > 100 µM
- GI50 (BT-549 breast): 4.9 µM
- TGI (BT-549 breast): 23.2 µM
- GI50 (MDA-MB-231 breast): 2.85 µM
- TGI (MDA-MB-231 breast): 9.34 µM
- GI50 (IGROV1 ovarian): 2.58 µM
- TGI (IGROV1 ovarian): 15.4 µM
- GI50 (SF-268 CNS): 4.66 µM
- TGI (SF-268 CNS): 20.5 µM
- GI50 (SN12C renal): 3.08 µM
- TGI (SN12C renal): 10.4 µM
- GI50 (PC-3 prostate): 5.22 µM
- TGI (PC-3 prostate): 21.6 µM
- GI50 (MALME-3M melanoma): 7.24 µM
- TGI (MALME-3M melanoma): 25.2 µM
- GI50 (U251 CNS): 11.3 µM
- TGI (U251 CNS): 27.4 µM
- GI50 (OVCAR-5 ovarian): 5.69 µM
- TGI (OVCAR-5 ovarian): 30.7 µM
- GI50 (RPMI-8226 leukemia): 6.95 µM and 3.32 µM
- TGI (RPMI-8226 leukemia): 22.2 µM
- GI50 (CAKI-1 renal): 2.32 µM
- TGI (CAKI-1 renal): 13.8 µM
- GI50 (786-0 renal): 5.86 µM
- TGI (786-0 renal): 29 µM
- GI50 (MCF7 breast): 3.32 µM
- TGI (MCF7 breast): 95.7 µM
- GI50 (SR leukemia): 5.07 µM
- TGI (SR leukemia): > 100 µM
- GI50 (SNB-19 CNS): 19.8 µM
- TGI (SNB-19 CNS): 50.7 µM
- GI50 (M14 melanoma): 4.34 µM
- TGI (M14 melanoma): 23.8 µM
- GI50 (NCI-H23 lung): 5.27 µM
- TGI (NCI-H23 lung): 41.6 µM
- GI50 (OVCAR-8 ovarian): 5.05 µM
- TGI (OVCAR-8 ovarian): 37.3 µM
- GI50 (HCC-2998 colon): 2.43 µM
- TGI (HCC-2998 colon): 5.48 µM
- GI50 (SK-MEL-28 melanoma): 7.76 µM
- TGI (SK-MEL-28 melanoma): > 100 µM
- GI50 (SF-539 CNS): 3.81 µM
- TGI (SF-539 CNS): 17.6 µM
- GI50 (A549 NSCLC): 5.16 µM
- TGI (A549 NSCLC): 26.8 µM
- GI50 (CCRF-CEM leukemia): 4.6 µM
- TGI (CCRF-CEM leukemia): > 100 µM
- GI50 (LOX IMVI melanoma): 2.07 µM
- TGI (LOX IMVI melanoma): 4.4 µM
- GI50 (SNB-75 CNS): 1.48 µM
- TGI (SNB-75 CNS): 15.4 µM
- GI50 (UO-31 renal): 7.6 µM and 2.42 µM
- TGI (UO-31 renal): 14.5 µM
- GI50 (COLO 205 colon): 3.26 µM
- TGI (COLO 205 colon): 10.3 µM
- GI50 (MDA-MB-435): 3.18 µM
- TGI (MDA-MB-435): 13.3 µM
- GI50 (RXF 393 renal): 7.57 µM and 1.67 µM
- TGI (RXF 393 renal): 4.96 µM
- GI50 (A498 renal): 3.93 µM and 1.08 µM
- TGI (A498 renal): 2.75 µM
- GI50 (OVCAR-4 ovarian): 3.46 µM
- TGI (OVCAR-4 ovarian): > 100 µM
- GI50 (SW-620 colon): 4.54 µM
- TGI (SW-620 colon): 32.4 µM
- GI50 (UACC-257 melanoma): 5.52 µM
- TGI (UACC-257 melanoma): 20.9 µM
- GI50 (SF-295 CNS): 12.3 µM
- TGI (SF-295 CNS): 34.5 µM
- GI50 (UACC-62 melanoma): 2.67 µM
- TGI (UACC-62 melanoma): 11.8 µM
- GI50 (SK-MEL-2 melanoma): 2.92 µM
- TGI (SK-MEL-2 melanoma): 8.38 µM
- GI50 (K-562 leukemia): 11.7 µM
- TGI (K-562 leukemia): > 100 µM
- GI50 (HCT-116 colon): 3.66 µM
- TGI (HCT-116 colon): 39.4 µM
- GI50 (SK-MEL-5 melanoma): 1.76 µM
- TGI (SK-MEL-5 melanoma): 3.61 µM
- GI50 (OVCAR-3 ovarian): 3.38 µM
- TGI (OVCAR-3 ovarian): 12.1 µM
- GI50 (HS 578T breast): 2.28 µM
- TGI (HS 578T breast): 8.41 µM
- GI50 (HCT-15 colon): 2.75 µM
- TGI (HCT-15 colon): 12.8 µM
- GI50 (TK-10 renal): 3.57 µM
- TGI (TK-10 renal): 21.2 µM
- GI50 (ACHN renal): 2.74 µM
- TGI (ACHN renal): 14.1 µM
- GI50 (NCI-H226 lung): 2.21 µM
- TGI (NCI-H226 lung): 11.1 µM
- GI50 (NCI-H460 lung): 4.53 µM
- TGI (NCI-H460 lung): 20.3 µM
- GI50 (NCI-H522 lung): 6.24 µM
- TGI (NCI-H522 lung): 22 µM
- GI50 (NCI/ADR-RES ovarian): 6.63 µM
- TGI (NCI/ADR-RES ovarian): > 100 µM
- GI50 (SK-OV-3 ovarian): 5.19 µM
- TGI (SK-OV-3 ovarian): 61.3 µM

SMILES: CC1=NN(c2nc(N)nc(CF)n2)C(C)(C)C1
- TGI (DU-145 prostate): > 100 µM
- TGI (HOP-92 NSCLC): > 100 µM
- TGI (HOP-62 NSCLC): > 100 µM
- TGI (T-47D breast): > 100 µM
- TGI (KM12 colon): > 100 µM
- TGI (HT29 colon): > 100 µM
- TGI (MOLT-4 leukemia): > 100 µM
- TGI (BT-549 breast): > 100 µM
- TGI (MDA-MB-231 breast): > 100 µM
- TGI (IGROV1 ovarian): > 100 µM
- TGI (SF-268 CNS): > 100 µM
- TGI (PC-3 prostate): > 100 µM
- TGI (EKVX NSCLC): > 100 µM
- TGI (U251 CNS): > 100 µM
- TGI (RPMI-8226 leukemia): > 100 µM
- TGI (CAKI-1 renal): > 100 µM
- TGI (786-0 renal): > 100 µM
- TGI (MCF7 breast): > 100 µM
- TGI (SR leukemia): > 100 µM
- TGI (SNB-19 CNS): > 100 µM
- TGI (M14 melanoma): > 100 µM
- TGI (NCI-H23 lung): > 100 µM
- TGI (OVCAR-8 ovarian): > 100 µM
- TGI (HCC-2998 colon): > 100 µM
- TGI (SK-MEL-28 melanoma): > 100 µM
- TGI (SF-539 CNS): > 100 µM
- TGI (CCRF-CEM leukemia): > 100 µM
- TGI (LOX IMVI melanoma): > 100 µM
- TGI (SNB-75 CNS): > 100 µM
- TGI (UO-31 renal): > 100 µM
- TGI (COLO 205 colon): > 100 µM
- TGI (MDA-MB-435): > 100 µM
- TGI (RXF 393 renal): > 100 µM
- TGI (A498 renal): > 100 µM
- TGI (OVCAR-4 ovarian): > 100 µM
- TGI (SW-620 colon): > 100 µM
- TGI (UACC-257 melanoma): > 100 µM
- TGI (SF-295 CNS): > 100 µM
- TGI (UACC-62 melanoma): > 100 µM
- TGI (SK-MEL-2 melanoma): > 100 µM
- TGI (HL-60(TB) leukemia): > 100 µM
- TGI (K-562 leukemia): > 100 µM
- TGI (HCT-116 colon): > 100 µM
- TGI (SK-MEL-5 melanoma): > 100 µM
- TGI (HS 578T breast): > 100 µM
- TGI (HCT-15 colon): > 100 µM
- TGI (TK-10 renal): > 100 µM
- TGI (ACHN renal): > 100 µM
- TGI (NCI-H226 lung): > 100 µM
- TGI (NCI-H460 lung): > 100 µM
- TGI (NCI/ADR-RES ovarian): > 100 µM
- TGI (SK-OV-3 ovarian): > 100 µM
